From paper PMC8149334 (Cancer Chemotherapy and Pharmacology, 2021)
One block for each molecule: values may come before it.

Experiments:
P-glycoprotein (P-gp) = settings: cited from earlier work
[1] = in vivo
Description: Additional details of the bioanalytical methods are available in the Supplementary Appendix. Serial blood samples were collected in Parts 1 and 2 on day 1 of cycles 1, 2, and 3, and every 3 cycles thereafter (Supplementary Table 1). […] Concentration–time profiles were plotted for each analyte, and individual and mean plasma concentration–time data and pharmacokinetic parameters were summarized using descriptive statistics.
Pharmacokinetic analyses were performed using the validated Phoenix™ WinNonlin® software (v6.2.1; […]). Noncompartmental analysis (model, Plasma; dose, extravascular) was applied for the pharmacokinetic analysis. The pharmacokinetics outputs were created using SAS v9.3 (SAS Institute Inc., Cary, NC, USA). Summary statistics, including N, mean, SD, % coefficient of variation, geometric mean, median, minimum, and maximum, were calculated for plasma concentration of each analyte at each time point and for the derived pharmacokinetic parameters.

SMILES: CNC(=O)c1ccc(N2C(=S)N(c3cnc(C#N)c(C(F)(F)F)c3)C(=O)C23CCC3)cc1F [Apalutamide, apalutamide]
Reduction in AUC0–last of fexofenadine (P-glycoprotein (P-gp); patients with CRPC): 30%

Metabolite-to-parent ratios [1]: below 1
SMILES: O=C(O)c1cccc2cn(-c3ccc(C4CCCNC4)cc3)nc12 (stereo not drawn) [M1]

SMILES: CO[C@H]1/C=C/O[C@@]2(C)Oc3c(C)c(O)c4c(O)c(c(/C=N/N5CCN(C)CC5)c(O)c4c3C2=O)NC(=O)/C(C)=C\C=C\[C@H](C)[C@H](O)[C@@H](C)[C@@H](O)[C@@H](C)[C@H](OC(C)=O)[C@@H]1C [Rifampin]
Decrease in exposure of various P-gp substrates (P-glycoprotein (P-gp); human, not told): ≤ 67%
